# Reference: patent publication US10842767B2, “Use of ketone esters for prevention of CNS oxygen toxicity” (University of South Florida, priority 2011, dated 2020)
# Values joined by “and” are separate entries in the source; they are usually repeats but may differ in a detail not shown here. Identical values can stand only once. “Also recorded” adds a separate entry of the source. Like-named read-outs stand apart in the source and are kept apart here.
# How the values were obtained:
# [1] = for blood pH after administration (FIG. 20): from 7.45
# [2] = Blood ketones (BHB, AcAc, acetone) and glucose after oral gavage; format: in vivo, rat; conditions: for blood BHB level versus control (words) / effect on blood glucose / blood AcAc / acetone level: ~10 g/kg gavage; for effect on blood glucose: over 4 hrs, relative to control (water); for blood AcAc / acetone level: acetone at 60 min; for duration of elevation of blood ketones: single oral/intragastric administration
# Experimental: To determine the time course of ketosis, 18 adult male Sprague-Dawley rats (250-350 grams), pathogen-free, were purchased from a vendor (Harlan) and shipped 7 days after being implanted with carotid catheters. The rats were food (not water) deprived for 18 hours prior to the start of the experiment. […] Whole blood samples (10 μl) were acquired for analysis of glucose and BHB at USF utilizing a commercially available glucose/ketone monitoring system (Nova Max® Plus) at time 0, 30, 60, 120, 180 and 240 min. In addition, heparinized blood samples (200 μl) were collected into Eppendorf tubes at time 0, 30, 60, 120, 180 and 240 min. Samples were processed for the detection and quantification of BHB, AcAc, and acetone at Case Western Reserve University, Mouse Metabolic Phenotyping Center (MMPC). Briefly, samples were chilled on ice for 30 s, centrifuged in a micro-centrifuge (13,000 G) for 3-5 min and plasma (>100 μl), treated with reducing reagent of cold 0.2M sodium borodeuteride (NaBD4; Sigma, 205591, CAS 15681-89-7) dissolved in 0.1M NaOH (8.4 mg NaBD4 in 1 ml of 0.1M NaOH) and then immediately frozen on dry ice before storing at −80° C. Acetone was analyzed at the 60 minute time point, which was the predicted peak of blood AcAc levels (Desrochers et al. 1995). 300 μl of whole blood were collected in addition to the above collections, stabilized with cold 0.2M NaBD4, and then immediately frozen on dry ice. Samples were stored at −80° C. until analyzed for ketones. Internal standards of [^2H6]BHB or [^2H8]isopropanol were added to the treated plasma or blood samples (50 μl or 15 μl) and the BHB, AcAc (as M+1 of BHB) or acetone (as 2-propanol) metabolites were analyzed by gas chromatography-mass spectrometry (GC-MS) using an Agilent 5973 mass spectrometer, linked to a 6890 gas chromatograph equipped with an autosampler. Briefly, GC-MS conditions were either EI or CI mode (electron or chemical ionization mode); the samples were detected by selected ion monitoring as the BHB- and AcAc-trimethylsilyl derivatives (EI) or the derivative of acetone-pentafluorobenzoyl (CI). […]
# Ketone measurements were taken at 30, 60, 120, 180 and 240 minutes. Blood plasma was treated with sodium borodeuteride (NaB2H4) to stabilize ketone concentration and then assayed by GC-MS. The rapid rise relating to blood ketones from BD-AcAc2 is due primarily from rapid desterfication in blood and tissues.
# [3] = tested on: rats exposed to 5 ATA O2 (CNS oxygen toxicity seizures); experiment: Latency to seizure (CNS-OT) in rats breathing hyperbaric oxygen at 5 ATA, radio-telemetry EEG; format: in vivo, rat; conditions: for increase in latency to seizure (LS) compared to control (water): rats, 5 ATA O2, ~10 g/kg (3 ml) gavage 30 min before dive
# Excerpt: All animal procedures were done in accordance with the University of South Florida Institutional Animal Care and Use Committee (IACUC) guidelines. Adult male Sprague-Dawley rats (n=60), 250-300 grams, were obtained from Harlan, anesthetized in 3-5% isoflurane (in O2) and implanted with a 4ET radio-transmitter (Data Sciences International, DSI) using sterile surgical technique. One pair of leads (positive and negative poles) was implanted in the costal diaphragm at the junction with the abdominal wall for diaphragmatic electromyogram (dEMG) signals, one pair of electrodes was inserted in the pectoral muscle to acquire electrocardiogram (ECG) data, and two pairs of wires were embedded in the skull between Bregma and Lambda, with one lead on either side of midline for each pair (EEG recordings). The EMG wires were not inserted into crural diaphragmatic muscle because of the high risk of pneumothorax due to the thinness of the muscle (419 to 630 μm). 4ET radio-transmitters also monitored core body temperature and physical activity. Rats were weighed immediately before surgery and subsequently once every 7 days, just prior to the weekly exposures to HBO2. After surgery, every animal recovered for ≥1 week.
# The radiotelemetry system consisted of an implantable 4ET radio-transmitter able to amplify and broadcast signals via a receiver (DSI PhysioTel, model RPC-2) connected to an acquisition interface unit (ACQ 7700 Ponemah) via electrical penetrations in the wall of the hyperbaric chamber. The acquisition interface unit was connected to a computer for real time data collection and storage. The same acquisition unit also recorded chamber pressure and temperature, which were measured, respectively, […] directly connected to the acquisition system via BNC (Bayonet Neill-Concelman) cables. Each animal was continuously monitored via a video camera (AXIS 221 Network Camera) and the video of each experiment was recorded as well.
# The hyperbaric system consisted of two main elements: 1) a plexiglass chamber (˜3 liter capacity, Diamond Box, Buxco, Electronics Inc., model PLY3114), that housed the rat during the experiment, and 2) a hyperbaric chamber (Reimers System Inc.—7.8 ATA MWP), that contained the plexiglass chamber and functioned as the pressure vessel. Both chambers were connected to an air compressor (oil-less rotary scroll compressor—model DK6086, Powerex).
# During each experiment (hyperbaric hyperoxia), both the main chamber and the animal chamber were filled with air. Rats were placed into the plexiglass chamber and allowed ten minutes to acclimate, at which time the plexiglass chamber was flushed with 100% O2. The animal was then allowed 15 minutes to acclimate before both chambers were compressed to 5 ATA (58.8 PSIG) at a rate of 0.7 ATA/min. […] Each experiment was visually monitored via a live camera. LS was calculated from the moment at which the internal and the external chambers reached 5 ATA until the onset of convulsions, identified as high-amplitude, high frequency spikes lasting 10 to 30 sec, followed by polyspikes and wave formation concurrent with tonic-clonic motions of forelimbs and head. […]
# The details of this example are explained in the Materials and Methods section above. Briefly, the effects of ketone esters (KEs) in preventing CNS-OT in rats were assessed before, during and after HBO2 exposure by measuring various parameters. […]
# [4] = tested on: primary cultures of rat cortical neurons; experiment: Superoxide anion production (DHE fluorescence) in primary cortex neurons exposed to HBO2 or amyloid beta; format: cell-based; conditions: 60 min 5 ATA O2, NBO and HBO
# Experimental: Primary dissociated neuronal cultures of the hippocampus and cortex are acquired from Brain Bits LLC, to increase time efficiency and to minimize cost associated with purchasing rats. Hippocampal or cortical tissue from Brain Bits (shipped in Hibernate®) are enzymatically and mechanically dissociated via pipette trituration. Neurons are plated on 12 mm glass coverslips and allowed to adhere for 1-2 hrs in an incubator maintained at 9-20% O2 in a humidified atmosphere. Cultures are maintained in media purchased from Brain Bits, including NbActiv1® and NbActive4. […] Fluorescent probes (for use with fluorescence and confocal microscopy)
# List of fluorescence probes that will be purchased from Invitrogen: • Dihydroethidium, DHE (1-10 μM; Exλ 525, Emλ 590) detects intracellular ·O2^− generation (Bindokas et al. 1996; D'Agostino et al. 2007). • Calcein-AM (4 μM; Exλ 490, Emλ 535) detects cell volume and monitors cell viability (Crowe, 1995; Inglefield, 1998; Inglefield, 1999). • Ethidium Homodimer-1, EH-1 (6 μM; Exλ 525, Emλ 590) enters cells upon membrane damage and thus labels dead or dying cells (Bickler and Hansen 1998; Pinheiro et al. 2006). Fluorescence and Confocal Microscopy […]
# Presence of intracellular ROS is measured by detection of superoxide anion using Dihydroethidium (DHE). […] Cells are washed in PBS and then visualized using fluorescent microscopy or quantified using spectrophotometry.
# [5] = in vivo; cited from earlier work
molecule,measurement,setting,value
"CC(=O)CC(=O)OCCC(C)OC(=O)CC(C)=O (stereo not shown) [BD-AcAc2, R,S-1,3-butanediol acetoacetate diester]",mean decrease of blood pH compared to control (pH~7.5),[1]; after about 30 minutes,0.05
same,mean decrease of blood pH compared to control (pH~7.5),[1]; after about one hour,0.1
same,blood pO2,[1]; during the 4 hour experiment,> 120 mmHg
same,blood pH after administration (FIG. 20),[1],7.35
same,increase in blood pO2 levels,[1]; significant and sustained,approximately 30%
same,total ketones,[2]; about 30 minutes after gavage,> 5 mM
same,"total blood ketones (BHB, AcAc and acetone)","[2]; after 1 hr, average",> 6 mM
same,blood AcAc level,"[2]; rats, 10 g/kg oral gavage",> 3 mM
same,blood BHB level,"[2]; rats, 10 g/kg oral gavage",> 3 mM
same,blood BHB level versus control (words),[2]; rats,significant increase in BHB and AcAc at 30 minutes
same,effect on blood glucose,[2]; rats,does not elevate blood glucose
same,effect on blood glucose,"[2]; rats, listed as KE",no significant effect on blood glucose levels
same,blood AcAc / acetone level,"[2]; rats, listed as KE",significantly higher at 60 minutes; also recorded: increased significantly
same,sustained elevation of total ketones,"[2]; single oral administration, for over 4 hrs",> 6 mM
same,duration of elevation of blood ketones,[2],over 4 h
same,duration of elevation of blood ketones,[2]; listed as KE,4 h and > 4 h
same,blood acetone level,[2]; within about 60 minutes after administration,~0.7 mM
same,increase in latency to seizure (LS) compared to control (water),[3],> 570%
same,increase in latency to seizure (LS) compared to control (water),[3]; listed as KE,574±115% and 574±116%
same,increase in latency to seizure (LS) compared to control (water),[3]; listed as dKE,570%
"CC(=O)CC(=O)OCCC(C)O (stereo not shown) [BD-AcAc, R,S-1,3-butanediol acetoacetate monoester]","latency to seizure, single rat EEG (FIG. 7)","[3]; HBO2 at 60 PSI (5 ATA O2), same rat without ketone ester about 8 minutes",110 min
same,increase in latency to seizure (LS) compared to control (water),[3],285%
"(R)-1,3-butanediol ester [BHB ester, reference compound]",blood BHB level versus control (words),[2]; rats,elevated blood levels of β-hydroxybutyrate
"Cc1ccccc1NC(=N)Nc1ccccc1C [DTG, 1,3,-di-o-tolylguanidine]",effect on superoxide production under hyperoxia,[4],prevented the hyperoxia-induced increase in superoxide production
MCT oil,level of ketones produced by supplementation,[5],< 500 µM
"C[C@H](O)CCO [BD, R,S-1,3-butanediol, reference compound]",acidosis,[1]; acute administration,mild nonpathological acidosis
same,mean decrease of blood pH compared to control (pH~7.5),[1]; after about 30 minutes,0.05
same,mean decrease of blood pH compared to control (pH~7.5),[1]; after about one hour,0.1
same,blood pH after administration (FIG. 20),[1],7.35
same,blood BHB level,"[2]; rats, 10 g/kg oral gavage",> 5 mM
same,blood BHB level versus control (words),[2]; rats,significant increase in BHB
same,effect on blood glucose,[2]; rats,no significant effect on blood glucose levels
same,blood AcAc / acetone level,[2]; rats,only modest elevation in AcAc; also recorded: remained low or undetectable
same,blood BHB level versus control (words),"[2]; rats, listed as 1,3-butanediol",elevated blood levels of β-hydroxybutyrate
